PMC2709206 (The Journal of neuroscience : the official journal of the …, 2008)
“And” between values parts separate entries of the source, which are not always exact repeats. Equal entries are not always repeated. Where two headings read alike, the source gives them in different places. Each block holds one compound with its values, some of them ahead of it.

Assays:
rat DRG neurons [1] = settings: ref Andersson et al., 2007; cited from earlier work
mouse TRPA1 [2] = target: T1, mouse TRPA1 (Mus musculus, UniProt Q8BLA8); test: [Ca2+]i increase in TRPA1-expressing CHO cells; type: cell-based; settings: for TRPA1 activation: Rose Bengal at 5 μM, supplemental Fig. 2; for [Ca2+]i-increase in TRPA1 CHO cells: at concentrations <50 μM, data not shown
mouse TRPA1 [3] = target: T1, mouse TRPA1; test: Voltage-clamp electrophysiology of TRPA1 CHO cells; type: cell-based; settings: for membrane current in TRPA1 CHO cells: whole-cell, holding potential -60 mV
untransfected CHO cells = test: Responses; type: cell-based, Chinese hamster; settings: data not shown
human TRPV1 = human TRPV1 (Homo sapiens, UniProt Q8NER1); test: Responses in CHO cells expressing TRPV1; type: cell-based; settings: data not shown
[4] = tested on: DRG neurons from trpa1+/+ mice; test: Calcium imaging of DRG neurons from trpa1+/+ mice; type: cell-based; settings: trpa1+/+ mouse DRG neurons; percentage of response to 50 mM KCl
[5] = tested on: DRG neurons from trpa1-/- mice; test: Calcium imaging of DRG neurons from trpa1-/- mice; type: cell-based; settings: trpa1-/- mouse DRG neurons; percentage of response to 50 mM KCl
wild-type mice = test: Nocifensive/pain behaviour after intraplantar injection, wild-type mice; type: in vivo, mouse; settings: intraplantar 2.2 μmol H2O2 or 32 nmol 15d-PGJ2 in 25 μl, 3 min
trpa1-/- mice = test: Nocifensive/pain behaviour after intraplantar injection, trpa1-/- mice; type: in vivo, mouse; settings: intraplantar 2.2 μmol H2O2 or 32 nmol 15d-PGJ2 in 25 μl, 3 min, compared with wild-type
rat nodose neurons = test: Calcium imaging of rat nodose ganglion neurons; type: cell-based; settings: for percentage of rat nodose neurons responding with [Ca2+]i increase: positive = at least 15% of response to 50 mM KCl, H2O2 5 mM, AITC 50 μM
rat DRG neurons [6] = test: Calcium imaging of rat DRG neurons; type: cell-based; settings: for capsaicin-sensitive DRG neurons that responded: 4-HNE 30 μM, 4-ONE 3 μM
DRG neurons = test: Whole-cell voltage clamp of DRG neurons; type: cell-based, rat; settings: voltage ramp
[7] = tested on: DRG neurons from trpv1-/- mice; test: Calcium imaging of DRG neurons from trpv1-/- mice; type: cell-based, mouse; settings: trpv1-/- mice (113 of 355)
[8] = tested on: DRG neurons from wild-type mice; test: Calcium imaging of DRG neurons from wild-type mice; type: cell-based, mouse; settings: wild-type mice (134 of 445)

T1 sequence (Q8BLA8 whole entry): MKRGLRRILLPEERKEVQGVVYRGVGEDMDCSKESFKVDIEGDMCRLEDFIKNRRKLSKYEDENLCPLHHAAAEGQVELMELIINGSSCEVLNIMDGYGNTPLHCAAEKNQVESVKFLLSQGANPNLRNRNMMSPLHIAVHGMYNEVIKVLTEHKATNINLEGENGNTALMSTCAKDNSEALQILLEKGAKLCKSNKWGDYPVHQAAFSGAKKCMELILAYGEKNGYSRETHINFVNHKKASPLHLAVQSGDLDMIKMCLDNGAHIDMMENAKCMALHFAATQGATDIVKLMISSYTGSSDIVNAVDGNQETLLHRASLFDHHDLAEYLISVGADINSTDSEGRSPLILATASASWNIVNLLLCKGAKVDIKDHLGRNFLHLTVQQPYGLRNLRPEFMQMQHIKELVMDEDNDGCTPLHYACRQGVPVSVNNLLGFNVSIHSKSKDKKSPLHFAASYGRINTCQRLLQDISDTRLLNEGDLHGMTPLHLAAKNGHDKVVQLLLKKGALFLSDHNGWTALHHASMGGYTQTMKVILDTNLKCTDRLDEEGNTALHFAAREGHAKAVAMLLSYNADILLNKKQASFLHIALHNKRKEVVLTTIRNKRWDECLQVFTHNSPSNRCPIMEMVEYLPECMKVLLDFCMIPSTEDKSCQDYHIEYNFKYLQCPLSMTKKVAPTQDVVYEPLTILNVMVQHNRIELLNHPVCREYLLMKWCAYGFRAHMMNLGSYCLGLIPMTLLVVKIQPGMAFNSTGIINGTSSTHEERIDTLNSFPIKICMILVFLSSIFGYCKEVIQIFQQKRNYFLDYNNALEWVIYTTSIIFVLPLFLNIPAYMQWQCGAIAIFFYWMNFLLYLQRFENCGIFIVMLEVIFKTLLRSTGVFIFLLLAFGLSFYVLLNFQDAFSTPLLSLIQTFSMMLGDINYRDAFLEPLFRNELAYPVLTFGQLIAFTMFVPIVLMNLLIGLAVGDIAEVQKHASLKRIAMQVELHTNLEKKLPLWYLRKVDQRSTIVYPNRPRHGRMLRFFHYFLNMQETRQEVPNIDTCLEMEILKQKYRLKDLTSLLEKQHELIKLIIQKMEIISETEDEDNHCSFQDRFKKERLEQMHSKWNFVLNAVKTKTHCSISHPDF
Sequence of human TRPV1 (Q8NER1 whole entry): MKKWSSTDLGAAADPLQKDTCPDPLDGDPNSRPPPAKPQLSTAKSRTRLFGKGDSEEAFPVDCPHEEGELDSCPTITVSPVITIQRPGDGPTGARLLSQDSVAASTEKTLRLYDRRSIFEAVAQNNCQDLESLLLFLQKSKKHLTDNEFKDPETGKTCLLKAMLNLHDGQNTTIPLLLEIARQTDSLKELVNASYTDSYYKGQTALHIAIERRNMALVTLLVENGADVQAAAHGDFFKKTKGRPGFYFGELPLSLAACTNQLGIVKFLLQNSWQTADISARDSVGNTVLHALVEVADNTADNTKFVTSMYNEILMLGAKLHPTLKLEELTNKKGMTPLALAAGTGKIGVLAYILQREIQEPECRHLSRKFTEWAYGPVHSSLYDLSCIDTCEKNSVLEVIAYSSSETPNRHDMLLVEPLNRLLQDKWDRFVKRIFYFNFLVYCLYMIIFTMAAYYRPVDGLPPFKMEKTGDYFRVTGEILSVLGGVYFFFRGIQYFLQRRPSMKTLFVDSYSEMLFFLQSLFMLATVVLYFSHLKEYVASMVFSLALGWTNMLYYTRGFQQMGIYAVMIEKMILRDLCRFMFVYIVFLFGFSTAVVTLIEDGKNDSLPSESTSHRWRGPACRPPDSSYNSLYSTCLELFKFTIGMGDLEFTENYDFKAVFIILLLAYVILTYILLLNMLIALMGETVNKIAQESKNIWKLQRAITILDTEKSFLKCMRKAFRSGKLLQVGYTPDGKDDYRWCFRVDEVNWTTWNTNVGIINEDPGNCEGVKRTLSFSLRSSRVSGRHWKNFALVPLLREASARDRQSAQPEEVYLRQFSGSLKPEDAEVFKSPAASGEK

SMILES: CC1CCC(C(C)C)C(O)C1 (stereo not shown) [menthol]
percentage of sensitive DRG neurons in DRG cultures (rat DRG neurons [1]): ~ 8%

SMILES: CCCCC[C@H](O)/C=C/[C@H]1C=CC(=O)[C@@H]1C/C=C\CCCC(=O)O [PGA2]
[Ca2+]i-increase in TRPA1 CHO cells (mouse TRPA1 [2]): failed to elicit any significant [Ca^2+]i-increase

SMILES: C=CCN=C=S [AITC, allyl isothiocyanate]
percentage of rat nodose neurons responding with [Ca2+]i increase (rat nodose neurons): 54.0% | Response amplitude (% of K+) [4]: 86% | Response amplitude (% of K+) [5]: 21%

SMILES: CCCCCC(O)/C=C/C=O (stereo not shown) [4-HNE, 4-hydroxynonenal]
membrane current in TRPA1 CHO cells (mouse TRPA1 [3]): evoked membrane currents | capsaicin-sensitive DRG neurons that responded (rat DRG neurons [6]): Approximately 50% | Response amplitude (% of K+) [4]: 61% | Response amplitude (% of K+) [5]: 34%

SMILES: CCCCC/C=C\C=C1\C(=O)CC[C@@H]1C/C=C\CCCC(=O)O [9,10-dihydro-15d-PGJ2]
[Ca2+]i-increase in TRPA1 CHO cells (mouse TRPA1 [2]): failed to elicit any significant [Ca^2+]i-increase

SMILES: OO [H2O2, hydrogen peroxide]
reversal of [Ca2+]i response by dithiothreitol (DTT) (mouse TRPA1 [2]; DTT 1 mM): reversed | EC50 lower / potency increased in Fe2+-loaded vs untreated cells (mouse TRPA1 [2]; TRPA1 CHO cells, after 90 s): ~ 20 fold and 20 fold | concentrations that activate TRPA1 (mouse TRPA1 [2]; extracellularly applied): 50 to 100 µM | EC50 (mouse TRPA1 [2]; read-out: EC50, increase in [Ca2+]i in Fe2+-loaded cells, TRPA1 CHO cells preloaded with 100 μM FeSO4 for 1 h, after 90 s): 53 ± 6 µM | EC50 (mouse TRPA1 [2]; read-out: EC50, increase in [Ca2+]i, TRPA1 CHO cells, after 90 s exposure): 1200 ± 400 µM | EC50 (mouse TRPA1 [2]; read-out: EC50, increase in [Ca2+]i, TRPA1 CHO cells, after 600 s exposure (plateau)): 230 µM | reversal potential of evoked current (mouse TRPA1 [3]; TRPA1 CHO cells, voltage ramp, calcium-free solution): ~0 mV | single-channel chord conductance (mouse TRPA1 [3]; cell-attached patches, -100 to +100 mV): 94 ± 3 pS | membrane current in TRPA1 CHO cells (mouse TRPA1 [3]): evoked an inward current | currents in untransfected CHO cells (untransfected CHO cells; concentrations up to 100 mM): failed to evoke currents | capsaicin-sensitive DRG neurons that did not respond (rat DRG neurons [6]; rat DRG neurons, calcium imaging): ~ 50% | percentage of rat nodose neurons responding with [Ca2+]i increase (rat nodose neurons): 49.8% | capsaicin-sensitive nodose neurons that did not respond (rat nodose neurons; rat nodose neurons, calcium imaging): ~ 30% | reversal potential of evoked current (DRG neurons): -6 mV | Response amplitude (% of K+) [4]: 70% | Response amplitude (% of K+) [5]: 31% | proportion of sensitive DRG neurons [7]: 31.8% | proportion of sensitive DRG neurons [8]: 30.1% | nocifensive/pain-related behaviour (wild-type mice): marked nocifensive behaviors | nocifensive/pain-related behaviour (trpa1-/- mice): greatly reduced or absent

The next lines start with results.

TRPA1 activation (mouse TRPA1 [2]): activated
SMILES: Cc1ccc(S(=O)(=O)NCl)cc1 [chloramine T]

membrane current in TRPA1 CHO cells (mouse TRPA1 [3]): evoked inward currents | [Ca2+]i increase / membrane currents in TRPV1 expressing CHO cells (human TRPV1): had no effect
SMILES: CCCCCC=CC=C1C(=O)C=C[C@@H]1CC=CCCCC(=O)O [15d-PGJ2, 15-deoxy-Δ^12,14-prostaglandin J2]
[Ca2+]i increase / membrane currents in untransfected CHO cells (untransfected CHO cells): had no effect | Response amplitude (% of K+) [4]: 63% | Response amplitude (% of K+) [5]: 47% | nocifensive/pain-related behaviour (wild-type mice): marked nocifensive behaviors | nocifensive/pain-related behaviour (trpa1-/- mice): greatly reduced or absent

TRPA1 activation (mouse TRPA1 [2]): activated
SMILES: O=C([O-])c1c(Cl)c(Cl)c(Cl)c(Cl)c1-c1c2cc(I)c(=O)c(I)c-2oc2c(I)c([O-])c(I)cc12.[Na+].[Na+] [Rose Bengal]

EC50 (mouse TRPA1 [2]): 1.9 µM
SMILES: CCCCCC(=O)C=CC=O [4-ONE, 4-oxo-2-nonenal]
capsaicin-sensitive DRG neurons that responded (rat DRG neurons [6]): Approximately 50% | Response amplitude (% of K+) [4]: 89% | Response amplitude (% of K+) [5]: 34%
